Source: PMC9794833, “Ligand recognition and activation of neuromedin U receptor 2” (Nature Communications, 2022)
Values joined by “and” are separate entries in the source; they are usually repeats but may differ in a detail not shown here. Equal values may be shown once. Where a SMILES comes first, the peptide text is derived from it. [ ]: non-standard residue; d: D form. The star is where a group is joined. αMeW = C[C@](N)(Cc1c[nH]c2ccccc12)C(=O)O; Acetyl(2-thienyl) = O=C(Cc1cccs1)*

Columns and labels:
NMU2 = target: T1, NMU2 (Homo sapiens, UniProt Q9GZQ4); assay: TRUPATH Gαi1βγ biosensor assay, WT NMU2; assay type: cell-based; conditions: WT; for CPN 267–induced G protein activation of NMU2: single replicates
T1 construct: HA signal peptide (N); expressed in transfected cells; host or cells: HEK 293F
Method: (§1) The plasmids of Gαi1, Gβ3, and Gγ9 used for the TRUPATH assay were purchased from Addgene (TRUPATH Kit, #1000000163). NMU2 constructs of WT and mutants were constructed into a PTT5 vector (Invitrogen) with an N-terminal HA signal peptide followed by a Flag tag. HEK 293F cells were transiently transfected with WT or mutants of NMU2, Gαi1, Gβ3, and Gγ9 at an […] ratio of 4:1:1:1 with a total of 3500 ng plasmid DNA using a transfection reagent (PEI MAX 2000, Polysciences) and cultivated at 37 °C with 5 % CO2. Cells were collected after 48-h transfection. The expression level of the receptor was measured by incubating 10 μl cells with 15 μl TBS buffer supplemented with 4% bovine serum albumin, 20% (v/v) viability staining solution7-AAD (Invitrogen, Cat#00-6993-50), and ANTI-FLAG M2-FITC antibody (Sigma, F4049; 1:100 diluted by TBS) at 4 °C for 20 min. After incubation, 175 μl TBS buffer was added, and the fluorescence signal on the cell surface was detected by an FCM (flow cytometry) reader (Millipore). The cells were diluted with 1× HBSS (Hank’s balanced salt solution) balanced buffer supplemented with 25 mM HEPES, pH 7.4, and seeded onto the 96-well opaque cell culture plates (Beyotime) at a density of 18,000 cells per well by 60 μl. Freshly prepared 50 μM coelenterazine 400a (Nanolight Technologies) was added into the well by 10 μl. After a 5 min equilibration time in the darkness, plates were then read in a Synerg^TM H1 microplate reader (BioTek) with excitation at 395 nm and emission at 410 and 515 nm by serially three times. Then, 30 μl of 3.3× agonists were added into the wells with a gradient final concentration from 10^−4–10^−13 M. Plates were read immediately again by serially five times. Data were processed and analyzed following the method in the literature by using GraphPad Prism 8.0.

NMU2 A302H = target: T2, NMU2 A302H (Homo sapiens, UniProt Q9GZQ4, A302H); assay: TRUPATH assay, NMU2 mutant A302H; assay type: cell-based; conditions: Log [CPN 267] M -13
T2 construct: HA signal peptide (N); expressed in transfected cells; host or cells: HEK 293F
Method: as §1

NMU2 N306Q = target: T3, NMU2 N306Q (Homo sapiens, UniProt Q9GZQ4, N306Q); assay: TRUPATH assay, NMU2 mutant N306Q; assay type: cell-based
T3 construct: HA signal peptide (N); expressed in transfected cells; host or cells: HEK 293F
Method: as §1

NMU2 H43E = target: T4, NMU2 H43E (Homo sapiens, UniProt Q9GZQ4, H43E); assay: TRUPATH assay, NMU2 mutant H43E; assay type: cell-based; conditions: for increase of Emax: H43E vs WT, TRUPATH; for CPN 267–induced G protein activation of NMU2: single replicates
T4 construct: HA signal peptide (N); expressed in transfected cells; host or cells: HEK 293F
Method: as §1

NMU1 = test system: NMU1; set-up: method as in PMID 24999562, PMID 25815150, PMID 28548497; conditions: cited from earlier work

T4 sequence (Q9GZQ4 whole entry H43E): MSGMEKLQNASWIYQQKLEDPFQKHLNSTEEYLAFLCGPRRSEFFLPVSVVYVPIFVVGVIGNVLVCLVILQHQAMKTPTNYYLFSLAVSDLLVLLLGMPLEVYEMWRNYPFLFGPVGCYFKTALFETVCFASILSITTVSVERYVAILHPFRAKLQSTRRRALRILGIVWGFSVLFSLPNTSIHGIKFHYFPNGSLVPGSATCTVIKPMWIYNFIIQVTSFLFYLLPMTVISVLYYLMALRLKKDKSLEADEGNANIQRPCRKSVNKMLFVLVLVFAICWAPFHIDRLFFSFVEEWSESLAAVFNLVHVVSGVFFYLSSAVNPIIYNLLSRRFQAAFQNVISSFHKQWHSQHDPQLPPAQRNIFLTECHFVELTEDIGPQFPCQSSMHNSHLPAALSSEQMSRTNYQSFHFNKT
T1 sequence (Q9GZQ4 whole entry): as the sequence (Q9GZQ4 whole entry H43E) above, with E43H counted along it
T3 sequence (Q9GZQ4 whole entry N306Q): as the sequence (Q9GZQ4 whole entry H43E) above, with E43H, N306Q counted along it
T2 sequence (Q9GZQ4 whole entry A302H): as the sequence (Q9GZQ4 whole entry H43E) above, with E43H, A302H counted along it

C[C@@](Cc1c[nH]c2ccccc12)(NC(=O)[C@H](Cc1c[nH]c2ccccc12)NC(=O)Cc1cccs1)C(=O)N[C@@H](CCCNC(=N)N)C(=O)N1CCC[C@H]1C(=O)N[C@@H](CCCNC(=N)N)C(=O)N[C@@H](CC(N)=O)C(N)=O [CPN 267] ({Acetyl(2-thienyl)}-W[αMeW]RPRN-NH2; N-terminus assumed)
EC50 ratio EC50(mutant)/EC50(WT) (NMU2): 1
CPN 267–induced G protein activation of NMU2 (NMU2; Log [CPN 267] M -5): -0.03587 and 0.007188 and -0.01399 and -0.02335
CPN 267–induced G protein activation of NMU2 (NMU2; Log [CPN 267] M -6): -0.02292 and -0.01831 and -0.0188 and -0.02168 and -0.03547 and -0.01761 and -0.003911 and -0.0252 and -0.02032
CPN 267–induced G protein activation of NMU2 (NMU2; Log [CPN 267] M -7): -0.006001 and -0.01343 and -0.0256 and -0.004694 and 0.01387 and -0.02539 and 0.01253 and -0.01403 and -0.001793
CPN 267–induced G protein activation of NMU2 (NMU2; Log [CPN 267] M -8): 0.003495 and -0.002501 and 0.007246 and 0.0002105 and -0.01007 and 0.01037 and -0.008456 and 0.001798
CPN 267–induced G protein activation of NMU2 (NMU2; Log [CPN 267] M -9): -0.002278 and 0.02355 and -0.003166 and -0.00428 and 0.01286 and -0.01712 and 0.00907 and -0.02718 and 0.02569
CPN 267–induced G protein activation of NMU2 (NMU2; Log [CPN 267] M -10): 0.01327 and -0.00722 and 0.003132 and -0.01489 and -0.004805 and 0.01086 and 0.01655 and -0.01176
CPN 267–induced G protein activation of NMU2 (NMU2; Log [CPN 267] M -11): 0.01288 and -0.01868 and -0.005647 and 0.02201 and -0.02258 and -0.03283 and 0 (3×)
CPN 267–induced G protein activation of NMU2 (NMU2; Log [CPN 267] M -12): 0.001564 and -0.001695 and 0.03559 and -0.01351 and 0.02492 and 0
CPN 267 dose-response point on NMU2 (TRUPATH, raw signal) (NMU2; Log [CPN 267] M -13): 0
CPN 267–induced G protein activation of NMU2 (NMU2; Log [CPN 267] M -13): 0
CPN 267 dose-response point on NMU2 (TRUPATH, raw signal) (NMU2 A302H): 0
EC50 ratio EC50(mutant)/EC50(WT) (NMU2 N306Q): 0.12
CPN 267–induced G protein activation of NMU2 (NMU2 N306Q; Log [CPN 267] M -4, single replicates): -0.07238 and -0.04006 and -0.03184
CPN 267–induced G protein activation of NMU2 (NMU2 N306Q; Log [CPN 267] M -5, single replicates): -0.01962 and -0.06076 and -0.0468 and -0.06887
CPN 267–induced G protein activation of NMU2 (NMU2 N306Q; Log [CPN 267] M -6, single replicates): -0.04834 and -0.04745
CPN 267 dose-response point on NMU2 (TRUPATH, raw signal) (NMU2 N306Q; Log [CPN 267] M -13): 0
enhanced potency compared to the WT receptor (NMU2 N306Q; TRUPATH): about 8 fold
EC50 ratio EC50(mutant)/EC50(WT) (NMU2 H43E; H43E): 2
increase of Emax (NMU2 H43E): twofold
increase of Emax (NMU2 H43E; listed as CPN267): 2 fold
CPN 267 dose-response point on NMU2 (TRUPATH, raw signal) (NMU2 H43E; H43E, Log [CPN 267] M -4): -0.04819
CPN 267–induced G protein activation of NMU2 (NMU2 H43E; H43E, Log [CPN 267] M -4): -0.04819
CPN 267–induced G protein activation of NMU2 (NMU2 H43E; H43E, Log [CPN 267] M -5): -0.05461 and -0.04902
CPN 267–induced G protein activation of NMU2 (NMU2 H43E; H43E, Log [CPN 267] M -6): -0.04442 and -0.04638 and -0.03015
CPN 267–induced G protein activation of NMU2 (NMU2 H43E; H43E, Log [CPN 267] M -7): -0.01102 and -0.01529 and -0.01284
CPN 267–induced G protein activation of NMU2 (NMU2 H43E; H43E, Log [CPN 267] M -8): 0.004556 and -0.024 and -0.02479
CPN 267–induced G protein activation of NMU2 (NMU2 H43E; H43E, Log [CPN 267] M -9): 0.01023 and -0.003075 and 0.003569
CPN 267–induced G protein activation of NMU2 (NMU2 H43E; H43E, Log [CPN 267] M -10): 0.0005609 and -0.01099 and -0.03027
CPN 267–induced G protein activation of NMU2 (NMU2 H43E; H43E, Log [CPN 267] M -11): 0.0192 and 0.004402 and 0
CPN 267–induced G protein activation of NMU2 (NMU2 H43E; H43E, Log [CPN 267] M -12): 0.009217 and 0
CPN 267 dose-response point on NMU2 (TRUPATH, raw signal) (NMU2 H43E; H43E, Log [CPN 267] M -13): 0
CPN 267–induced G protein activation of NMU2 (NMU2 H43E; H43E, Log [CPN 267] M -13): 0
selectivity over NMU2 (NMU1; NMU1 over NMU2): 1000 fold
EC50 (NMU1; agonistic activity for NMU1): 0.25 nM
